Results from patent US20230190756A1, “PHARMACEUTICAL FORMULATION FOR THE ELIMINATION OF CAUSATIVE AGENTS OF HERPESVIRAL INFECTIONS FROM THE TISSUES OF A MACROORGANISM” (priority 2017, published 2023).

Key:
EBV lymphoma cells = details: cited from earlier work
EBV infection = details: cited from earlier work
[1] = tested on: p300-induced p65 acetylation; details: in vitro and in vivo; cited from earlier work
[2] = Biological activity of fully substituted derivatives (test not specified)
Source text: Also, peak (2) was not divided into several small fragments, nor was it possible to separate it using different conditions of thin layer chromatography, which indicates the stable nature of the formed supramolecular structure from different derivatives.

HDAC = details: cited from earlier work

| Compound | biological activity [2] | further results |
| --- | --- | --- |
| Nc1ccccc1NC(=O)c1ccc(CNC(=O)OCc2cccnc2)cc1 [MS275] | – | effective concentrations for sensitizing to ganciclovir (EBV lymphoma cells): effective at nanomolar concentrations |
| O=C(O[C@@H]1Cc2c(O)cc(O)cc2O[C@@H]1c1cc(O)c(O)c(O)c1)c1cc(O)c(O)c(O)c1 [No 13 (Table 1), epigallocatechin gallate] | – | expression of cytokines induced by EBV infection (EBV infection): completely blocks; p300-induced p65 acetylation [1]: cancels |
| octaacetyl epigalocatechin [fully acetylated epigalocatechin] | did not exhibit biological activity | – |
| octaacetyl glycyrrhizin [fully acetylated glycyrrhizin] | did not exhibit biological activity | – |
| octasuccinyl epigalocatechin [Fully succinylated epigalocatechin] | did not exhibit biological activity | – |
| octasuccinyl glycyrrhizin [Fully succinylated glycyrrhizin] | did not exhibit biological activity | – |
| trichostatin A [TCA] | – | IC50% (HDAC): in the nanomolar region |
